US20190314379A1, “METHODS OF USING CANNABINOID CB2 RECEPTOR AGONIST COMPOSITIONS TO SUPPRESS AND PREVENT OPIOID TOLERANCE AND WITHDRAWAL IN A SUBJECT” (Indiana University Research and Technology Corporation, priority 2018, published 2019)
Entries after “also recorded” stand apart in the source; their conditions may differ.

Assays:
mouse CB2 receptors [1] = molecular target: T1, mouse CB2 receptors (Mus musculus, UniProt P47936); assay: On-cell western for receptor internalization, HEK mCB2; assay type: cell-based
T1 construct: expressed in transfected cells
T1 sequence (P47936 whole entry): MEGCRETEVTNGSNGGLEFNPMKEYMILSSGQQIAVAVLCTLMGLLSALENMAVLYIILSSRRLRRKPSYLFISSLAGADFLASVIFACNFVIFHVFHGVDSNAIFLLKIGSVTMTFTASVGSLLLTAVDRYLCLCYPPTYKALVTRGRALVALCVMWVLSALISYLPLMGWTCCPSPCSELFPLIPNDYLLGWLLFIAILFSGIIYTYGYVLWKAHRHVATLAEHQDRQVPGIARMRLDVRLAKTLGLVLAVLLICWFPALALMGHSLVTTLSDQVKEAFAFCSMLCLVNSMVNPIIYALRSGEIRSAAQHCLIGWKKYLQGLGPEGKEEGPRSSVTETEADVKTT

human CB2 [2] = molecular target: T2, human CB2 (Homo sapiens, UniProt P34972); assay: Myo-inositol phosphate-1 (IP1) accumulation, HEK hCB2; assay type: cell-based; design: expressed in transfected cells; settings: via human CB2
T2 sequence (P34972 whole entry): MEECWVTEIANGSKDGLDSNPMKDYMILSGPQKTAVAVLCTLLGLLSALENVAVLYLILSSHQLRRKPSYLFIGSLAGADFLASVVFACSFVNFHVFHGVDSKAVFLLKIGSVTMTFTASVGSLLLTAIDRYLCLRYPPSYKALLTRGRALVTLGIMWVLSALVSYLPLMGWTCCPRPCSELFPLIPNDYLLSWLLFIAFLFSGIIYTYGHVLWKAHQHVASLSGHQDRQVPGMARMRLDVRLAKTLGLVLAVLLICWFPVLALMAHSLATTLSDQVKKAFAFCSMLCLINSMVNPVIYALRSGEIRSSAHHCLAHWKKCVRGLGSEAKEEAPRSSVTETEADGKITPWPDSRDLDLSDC

[3] = test system: naloxone-precipitated opioid withdrawal; assay: Naloxone-precipitated opioid withdrawal in paclitaxel-treated mice; assay type: in vivo, mouse
Experimental: Alter the last injection of morphine (on day 28 for two-phase treatments, on day 13 for coadministration treatment), we challenged WT or CB2KO mice from experiments 2, 3, and 4 with vehicle, followed 30 minutes later by naloxone (5 mg/kg i.p.) to precipitate opioid receptor-mediated withdrawal. Mice were video-recorded for subsequent scoring of withdrawal-like behaviors for a 30-minute interval after challenge with vehicle or naloxone.
Mice were video-taped, and the number of jumps was scored in 5-minute intervals for a total observation period of 30 minutes after challenge with either saline or naloxone (5 mg/kg i.p.).

[4] = test system: paclitaxel-induced mechanical allodynia; assay: Paclitaxel-induced mechanical allodynia (electronic von Frey); assay type: in vivo, mouse; settings: for mechanical allodynia, chronic phase 1 treatment: 3 mg/kg per day i.p.×12 days
Experimental: In all studies, the experimenter was blinded to the treatment condition, and mice were randomly assigned to experimental conditions. Paclitaxel (4 mg/kg i.p.) was administered four times on alternate days (cumulative dose, 16 mg/kg i.p.) to induce neuropathic pain as described previously by our group (Deng et al., 2015). Control mice received an equal volume of cremophor-vehicle. Development of paclitaxel-induced allodynia was assessed on day 0, 4, 7, 11, and 14.
Effects of pharmacologic manipulations were assessed at 30 minutes after drug administration during the maintenance phase of paclitaxel-induced neuropathy (i.e., beginning day 18-20 after initial paclitaxel injection).
In experiments 2 and 3, pharmacologic manipulations were performed once daily for 12 consecutive days in each of the two phases of chronic treatment. Four days separated phase 1 and phase 2 chronic dosing in all studies comprising two phases of chronic dosing. Experiments 2 and 3 were performed concurrently using overlapping cohorts that were tested with a single vehicle (phase 1), vehicle (phase 2) group.
We then assessed the antiallodynic efficacy of chronic systemic administration of vehicle or morphine (10 mg/kg per day i.p.×12 days) administered during phase 2 in the same animals. Responsiveness to mechanical and cold stimulation was evaluated on treatment days 1, 4, 8, and 12 during phase 1 and on treatment days 16, 19, 23, and 27 during phase 2 (i.e., phase 2 started on day 16).
In experiment 4, we evaluated the impact of coadministration of morphine (10 mg/kg i.p.×12 days) with a submaximal dose of LY 2828360 (0.1 mg/kg per day i.p.×12 days) in WT and CB2 KO mice.
Paw withdrawal thresholds (grams) to mechanical stimulation were measured in duplicate for each paw using an electronic von Frey anesthesiometer supplied with a 90-g probe (model Alemo 2390-5; IITC, Woodland Hills, Calif.) as described previously. Mice were placed on an elevated metal mesh table and allowed to habituate under individual, inverted plastic cages to the testing platform for at least 20 minutes until exploratory behavior had ceased. Alter the habituation period, a force was applied to the midplantar region of the hind paw with a semiflexible tip connected to the anesthesiometer. Mechanical stimulation was terminated when the animal withdrew its paw, and the value of the applied force was recorded in grams. Mechanical paw withdrawal thresholds were obtained in duplicate for each paw and are reported as the mean of duplicate determinations from each animal, averaged across animals, for each group.

mouse CB2 receptors [5] = molecular target: T1, mouse CB2 receptors; assay: Phosphorylated ERK1/2 detection, HEK mCB2; assay type: cell-based; settings: for Emax: read-out: pERK1/2 Emax
human CB2 [6] = molecular target: T2, human CB2; assay: Forskolin-stimulated cAMP accumulation (cyclase), HEK hCB2; assay type: cell-based; design: expressed in transfected cells; time of inhibition of forskolin-stimulated cAMP accumulation: dose or concentration left out as unconfirmed
osteoarthritic knee pain = settings: cited from earlier work
[7] = test system: joint pain induced by intra-articular monoiodoacetic acid; settings: 0.3 mg/kg p.o.; cited from earlier work
human CB2 [8] = molecular target: T2, human CB2; assay: Phosphorylated ERK1/2 detection, HEK hCB2; assay type: cell-based; design: expressed in transfected cells; settings: for Emax: read-out: pERK1/2 Emax
human CB2 [9] = molecular target: T2, human CB2; settings: at 20 nM; cited from earlier work
mouse CB2 receptors [10] = molecular target: T1, mouse CB2 receptors; assay: Forskolin-stimulated cAMP accumulation (cyclase), HEK mCB2; assay type: cell-based; settings: for Emax: read-out: Cyclase Emax
mouse CB2 receptors [11] = molecular target: T1, mouse CB2 receptors; assay: Myo-inositol phosphate-1 (IP1) accumulation, HEK mCB2; assay type: cell-based; settings: via mouse CB2
[12] = in vivo; cited from earlier work
[13] = paclitaxel-treated WT mice, naloxone 5 mg/kg i.p.
[14] = WT mice, 3 mg/kg per day i.p.×12 days after phase 1 morphine

Cc1nc(N2CCN(C)CC2)c2nc(-c3ccccc3Cl)n(C3CCOCC3)c2n1 [LY2828360, 8-(2-chlorophenyl)-2-methyl-6-(4-methylpiperazin-1-yl)-9-(tetrahydro-2H-pyran-4-yl)-9H-purine]
receptor internalization (mouse CB2 receptors [1]; HEK mCB2): failed to internalize the receptor; also recorded: less potent and efficacious | EC50 (mouse CB2 receptors [1]; mouse CB2, 90 mins incubation, read-out: Internalization EC50): 0.0307 µM | Emax (mouse CB2 receptors [1]; mouse CB2, 90 mins incubation, read-out: Internalization Emax): 19.1% | IP1 accumulation (human CB2 [2]): did not affect IP1 accumulation | naloxone-precipitated jumps, WT compared with CB2KO mice ([3]; coadministration of LY2828360 with morphine, P=0.055): trended to produce a lower number of naloxone-precipitated jumps | number of jumps, LY (1)-Mor (2) vs Veh (1)-Mor (2) ([3]; paclitaxel-treated CB2KO mice): did not differ | number of jumps, LY (1)-Mor (2) vs Veh (1)-Veh (2) ([3]; paclitaxel-treated CB2KO mice): trended higher | number of jumps, LY (1)-Mor (2) vs Veh (1)-Mor (2) [3, 13]: did not differ | number of naloxone-precipitated jumps, LY (1)-Mor (2) vs Veh (1)-Veh (2) [3, 13]: did not differ | time for responsiveness to mechanical stimulation to return to baseline ([4]; 3 mg/kg i.p. acute): 1 days | mechanical allodynia, chronic phase 1 treatment ([4]; CB2KO mice): failed to suppress | mechanical responsiveness, phase 2 treatment of morphine-tolerant mice ([4]; CB2KO mice, 3 mg/kg per day i.p.×12 days after phase 1 morphine): did not alter responsiveness to mechanical or cold stimulation | mechanical allodynia, coadministration with morphine ([4]; CB2KO mice, LY2828360 0.1 mg/kg with morphine 10 mg/kg per day×12 days): sustained antiallodynic efficacy was absent | development of tolerance to antiallodynic effect of phase 2 morphine, mechanical ([4]; CB2KO mice, LY2828360 phase 1, morphine phase 2): did not block the development of morphine tolerance | paclitaxel-induced mechanical allodynia, high dose ([4]; WT mice, 3 mg/kg i.p. acute): fully reversed paclitaxel-induced allodynia and normalized responses to pre-paclitaxel baseline levels | mechanical allodynia, chronic phase 1 treatment ([4]; WT mice): markedly suppressed paclitaxel-induced mechanical and cold allodynia throughout the observation interval | mechanical allodynia, phase 2 treatment of morphine-tolerant mice [4, 14]: fully reversed paclitaxel-induced allodynia and normalized responsiveness to pre-paclitaxel baseline levels | tolerance to phase 2 treatment, mechanical [4, 14]: tolerance did not develop | mechanical allodynia, coadministration with morphine ([4]; WT mice, LY2828360 0.1 mg/kg per day i.p.×12 days with morphine 10 mg/kg per day×12 days): fully reversed paclitaxel-induced mechanical allodynia and normalized responses to pre-paclitaxel baseline levels throughout the observation period | development of morphine tolerance under coadministration, mechanical ([4]; WT mice, LY2828360 0.1 mg/kg with morphine 10 mg/kg per day×12 days): morphine tolerance failed to develop | development of tolerance to antiallodynic effect of phase 2 morphine, mechanical ([4]; WT mice, LY2828360 3 mg/kg per day×12 days phase 1, morphine 10 mg/kg×12 days phase 2): prevented the development of morphine tolerance | paclitaxel-induced mechanical allodynia, acute dose response ([4]; WT mice, acute systemic (i.p.), dose-dependent): suppressed | mechanical allodynia at low doses vs cremophor-vehicle controls ([4]; WT mice, doses lower than 0.3 mg/kg i.p.): neuropathic pain was prominent | stability of antiallodynic efficacy (tolerance), mechanical ([4]; WT mice, phase 1, 3 mg/kg per day i.p.×12 days): stable throughout phase 1 treatment | ERK1/2 phosphorylation time course (mouse CB2 receptors [5]; mCB2, 1 μM): had no effect at 5- and 10-minute time points but increased ERK1/2 phosphorylation at 20, 30, and 40 minutes | ERK1/2 phosphorylation after PTX treatment (mouse CB2 receptors [5]; mCB2, 1 μM, PTX): abolished the 20-minute phosphorylation of ERK1/2 | ERK1/2 phosphorylation, concentration response (mouse CB2 receptors [5]; mCB2, 5 minutes): failed to affect pERK1/2 levels | ERK1/2 phosphorylation, concentration response (mouse CB2 receptors [5]; mCB2, 20 minutes): increased ERK1/2 phosphorylation | effect on ERK1/2 phosphorylation in presence of SR144528 (mouse CB2 receptors [5]; mCB2, 20 minutes, SR144528 1 μM): blocked | Emax (mouse CB2 receptors [5]; mouse CB2, 05 mins incubation): 4.1% | EC50 (mouse CB2 receptors [5]; mouse CB2, 20 mins incubation, read-out: pERK1/2 EC50): 0.339 µM | Emax (mouse CB2 receptors [5]; mouse CB2, 20 mins incubation): 43.6% | inhibition of forskolin-stimulated cAMP accumulation (human CB2 [6]; hCB2, 5 minutes of treatment): had no effect | inhibition of forskolin-stimulated cAMP accumulation (human CB2 [6]; hCB2, 35 minutes): potent and efficacious agonist | inhibition of forskolin-stimulated cAMP accumulation in presence of SR144528 (human CB2 [6]; hCB2, 35 minutes): completely blocked | time of inhibition of forskolin-stimulated cAMP accumulation (human CB2 [6]; hCB2, time course): 35 min | inhibition of cAMP accumulation after PTX pretreatment (human CB2 [6]; hCB2, time course, PTX): abolished this effect | Emax (human CB2 [6]; human CB2, 35 mins incubation, read-out: Cyclase Emax): 42.8% | risks or discomforts in human subjects (osteoarthritic knee pain; osteoarthritic pain, up to 80 mg for 4 weeks): No specific risks or discomforts | primary endpoint vs placebo / relief of osteoarthritis pain (osteoarthritic knee pain; patients with osteoarthritic knee pain, phase 2): ineffective in relieving pain associated with osteoarthritis; also recorded: did not differ | efficacy compared with diclofenac [7]: equivalent efficacy | reversal of pain, incapacitance testing [7]: dose-related reversal of pain | ERK1/2 phosphorylation time course (human CB2 [8]; hCB2, 1 pM): increased ERK1/2 phosphorylation after 30 minutes, but not at 5 minutes | ERK1/2 phosphorylation after PTX treatment (human CB2 [8]; hCB2, 1 pM, PTX): abolished ERK1/2 phosphorylation | stimulated phosphorylation of ERK1/2 in presence of SR144528 (human CB2 [8]; hCB2, SR144528 (1 pM)): completely blocked | Emax (human CB2 [8]; human CB2, 05 mins incubation): 22.1% | Emax (human CB2 [8]; human CB2, 30 mins incubation): 32.3% | maximal stimulation of CB2 (human CB2 [9]): approximately 87% | forskolin-stimulated cAMP after PTX treatment (mouse CB2 receptors [10]; mCB2, 1 μM, PTX 300 ng/ml overnight): failed to affect cyclase levels at all time points | time of efficacious inhibition of forskolin-stimulated adenylyl cyclase (mouse CB2 receptors [10]; mCB2, 1 μM, time course): 30 min | inhibition of forskolin-stimulated cAMP accumulation in presence of SR144528 (mouse CB2 receptors [10]; mCB2, 30-minute incubation, 1 μM SR144528 (SR2)): completely blocked | inhibition of forskolin-stimulated cAMP accumulation, concentration response (mouse CB2 receptors [10]; mCB2, 5 minutes): had no effect | inhibition of forskolin-stimulated cAMP accumulation, concentration response (mouse CB2 receptors [10]; mCB2, 30 minutes): potent, efficacious, and CB2 receptor mediated | Emax (mouse CB2 receptors [10]; mouse CB2, 05 mins incubation): 18.9% | EC50 (mouse CB2 receptors [10]; mouse CB2, 30 mins incubation, read-out: Cyclase EC50): 0.0136 µM | Emax (mouse CB2 receptors [10]; mouse CB2, 30 mins incubation): 53.4% | IP1 accumulation (mouse CB2 receptors [11]): did not affect IP1 accumulation | central nervous system (CNS) penetration [12]: good
